Patent US7232852B2, “Photopolymerizable compositions that include alicyclic/aromatic dioxiranes and novel dioxiranyl tetraoxaspiro [5.5] undecanes” (Curators of the University of Missouri, priority 2002, dated 2007)

Test: Photoinitiated solution homopolymerization of BMOCHM-TOSU (FTIR, gel point)
Assay type: physicochemical
Conditions: post irradiation, 20 wt % in methylene chloride
Protocol: The effect of irradiation time on the photoinitated homopolymerization of BMOCHM-TOSU monomer (20 wt % in methylene chloride) was evaluated by gel point determination and by FTIR spectroscopy. Selected IR absorption bands in the reaction mixture characteristic of hydroxyl, carbonyl and oxirane groups were monitored as a function of irradiation time. […] These observations indicate the possibility of homopolymer formation. The mixture gelled 1.5 min post irradiation.

SMILES	gel point (mixture gelled)
CC1CC2OC2CC1CC1COC2(OC1)OCC(CC1CC3OC3CC1C)CO2 (stereo not shown) [BMOCHM, 3,9-bis[(4-methyl-7-oxabicyclo[4.1.0]hept-3-yl)methyl]-1,5,7,11-tetraoxaspiro[5,5]undecane]	1.5 min

Test: Solubility of TOSUs in oxirane coreactant systems
Assay type: physicochemical
Conditions: 25° C.

SMILES	Solubility in oxirane base UVR 6105	Solubility in oxirane base UVR 6105/PTHF (80/20)	Solubility in oxirane base BOCPE	Solubility in oxirane base BDDGE/PTHF (80/20)
C1=CCC(CC2COC3(OC2)OCC(CC2CC=CCC2)CO3)CC1 (stereo not shown) [BCHEM, 3,9-Bis(cyclohex-3-enylmethyl)-1,5,7,11-tetraoxaspiro[5,5]undecane]	15–25 wt %	25 wt %	–	–
CCC1(CC)COC2(COC3(CCC4OC4C3)OC2)OC1 (stereo not shown) [DEODSH, 5,5-diethyl-19-oxdispiro[1,3-dioxane-2,5′-1,3-dioxane-2′,3″-bicyclo[4.1.0]heptane]]	–	40 wt %	>10 wt %	–
C1CC2(COC3(OC2)OCC2(CCC4OC4C2)CO3)CC2OC12 (stereo not shown) [DOTSHH, 7,26-dioxatrispiro[bicycle[4.1.0]heptane-3,5′-1,3-dioxane-2′2″-1,3-dioxane-5″,4′″-bicyclo[4.1.0]heptane]]	–	<5 wt %	10 wt %	5 wt %
C1OC2(OCC13CC1OC1C3)OCC1(CO2)CC2OC2C1 (stereo not shown) [DOTSHX, 6,24-dioxatrispiro[bicyclo[3.1.0]hexane-3.5′-1,3-dioxane-2.2′-1,3-dioxane-5″3′″-bicyclo[3.1.0]hexane]]	–	–	<5 wt %	<5 wt %

Further lines, results first:

Solubility in oxirane base UVR 6105	Solubility in oxirane base UVR 6105/PTHF (80/20)	Solubility in oxirane base BOCPE	Solubility in oxirane base BDDGE/PTHF (80/20)	SMILES
30 wt %	25 wt %	<10 wt %	–	CC1CC2OC2CC1CC1COC2(OC1)OCC(CC1CC3OC3CC1C)CO2 (stereo not shown) [BMOCHM, 3,9-bis[(4-methyl-7-oxabicyclo[4.1.0]hept-3-yl)methyl]-1,5,7,11-tetraoxaspiro[5,5]undecane]
30 wt %	25 wt %	<10 wt %	–	C1CC2OC2CC1CC1COC2(OC1)OCC(CC1CCC3OC3C1)CO2 (stereo not shown) [BOCHM, 3,9-bis[(7-oxabicyclo[4.1.0]hept-3-yl)methyl]-1,5,7,11-tetraoxaspiro[5.5]undecane]
